What is called IC50 is the concentration at which inhibition is half-maximal.

Several values for one entry are separate records, joined by “and”; a condition that tells them apart may be missing. Equal values may be shown once. Read-outs that look alike come from different tables or passages of the source.

One assay deals with HT-1080 (CD13+). Nature of the assay: In vitro cytotoxicity of ADCs and related reagents, MTT assay. It counts as cell-based. The conditions noted are these: Homo sapiens, read-out: IC50 HT-1080 (CD13 positive); HT-1080 cells; geometric mean of the IC50 values of three experiments. From the text: (§1) Cell survival was expressed as percentage of control, untreated cell survival.
(Formazan colour is commonly taken as a measure of viable cells.)

Assay [1] relates to SK-BR-3, HCC-1954, MDA-MB-231 and MCF-7 cells. The assay is described as follows: In vitro cytotoxicity across the HER2 breast cancer cell panel and HER2 selectivity. The conditions noted are these: Homo sapiens. It counts as cell-based. How it is done: For SK-BR-3, HCC-1954, MDA-MB-231 and MCF-7 cells, a colorimetric assay using Sulforhodamine B (SRB) was adapted for quantitative measurement of cell growth and cytotoxicity, as described in V. Vichai and K. Kirtikara. Sulforhodamine B colorimetric assay for cytotoxicity screening. Nature Protocols, 2006, 1, 1112-1116. Briefly, cells were seeded in 96-well microtiter plates and allowed to stand for 24 hours in drug-free medium before treatment with vehicle alone or with the tested substances for 72 hours.
as §1
Standard dose-response (DR) curves for 72 hours incubation with the tested substances were performed.

For another assay, the system named is RPMI 8226 (CD13−). The assay is described as follows: In vitro cytotoxicity of ADCs and related reagents, MTT assay. It is filed as cell-based, human. The note with it: Homo sapiens, RPMI-8226; RPMI8226 cells; geometric mean of the IC50 values of three experiments; read-out: IC50 RPMI8226 (CD13 negative). The protocol:
(§2) Briefly, cells were seeded in 96-well trays and treated as above and after 72 hours of exposure to the tested substances cellular viability was estimated from conversion of MTT (Sigma, St Louis, MO, USA) to its coloured reaction product, MTT-formazan, which was dissolved in DMSO to measure its absorbance at 540 nm in a microplate spectrophotometer.
as §1

Another assay deals with NB 4 (CD13+). Described as above. It is filed as cell-based, human. The note with it: Homo sapiens; NB-4 cells; geometric mean of the IC50 values of three experiments; read-out: IC50 NB-4 (CD13 positive). The protocol:
as §2, §1

In the next assay the test system is Raji (CD13−). The description is as above. The note with it: Homo sapiens; Raji cells; geometric mean of the IC50 values of three experiments; read-out: IC50 Raji (CD13 negative). It counts as cell-based, human. The protocol: as §2, §1
Assay [2] has as its system HT-1080, NB 4, Raji and RPMI 8226 cells. Nature of the assay: In vitro cytotoxicity across the CD13 cell panel and CD13 selectivity. The conditions noted are these: Homo sapiens, CD13 positive and negative cell lines. It is filed as cell-based, human.
Description: as §1

The subject of the next assay is HCC-1954 (HER2+). The assay is described as follows: In vitro cytotoxicity of ADCs and related reagents, SRB assay. It is filed as cell-based. The note with it: Homo sapiens, HCC1954; HCC-1954, HER2 positive, 72 hours; read-out: IC50. How it is done:
(§3) Sulforhodamine B colorimetric assay for cytotoxicity screening. […] Briefly, cells were seeded in 96-well microtiter plates and allowed to stand for 24 hours in drug-free medium before treatment with vehicle alone or with the tested substances for 72 hours.
as §1
A general note: The SRB assay estimates cell density from bound dye.

A further assay concerns SK-BR-3 (HER2+). The assay is described as above. It is filed as cell-based. The conditions noted are these: Homo sapiens; SK-BR-3, HER2 positive, 72 hours; read-out: IC50. How it is done:
as §3, §1

In another assay the test system is MDA-MB-231 (HER2−). Described as above. It is filed as cell-based. The note with it: Homo sapiens; MDA-MB-231, HER2 negative, 72 hours; read-out: IC50. The protocol: as §3, §1
[3] abbreviates: read-out: IC50 values, range over the four cell lines.
The mark [4] stands for this setting: read-out: geometric mean IC50 value across the whole cell panel.

`COc1c(C)cc2c(c1O)[C@@H]1[C@@H]3[C@@H]4SC[C@]5(N[C@@H](CN)Cc6c5[nH]c5ccccc65)C(=O)OC[C@@H](c5c6c(c(C)c(OC(C)=O)c54)OCO6)N3[C@@H](O)[C@H](C2)N1C` [12-R]: the IC50 in the assay with HT-1080 (CD13+) was 0.0011 µg/mL and 1.4 nM; in assay [1] (setting [3]) it was 0.0004 µg/mL to 0.0013 µg/mL and 0.562 nM to 1.62 nM; in [1] (setting [4]), 0.00071 µg/mL and 0.906 nM; in the assay on RPMI 8226 (CD13−), 0.00083 µg/mL and 1.06 nM; with NB 4 (CD13+) it was 0.00033 µg/mL and 0.421 nM; in the assay with Raji (CD13−), 0.00047 µg/mL and 0.6 nM. For the same compound, the IC50 is 0.0003 µg/mL to 0.0011 µg/mL and 0.421 nM to 1.4 nM in [2] (setting [3]); 0.0006 µg/mL and 0.78 nM in assay [2] (setting [4]); 0.00127 µg/mL and 1.62 nM in the assay on HCC-1954 (HER2+); 0.000441 µg/mL and 0.562 nM with SK-BR-3 (HER2+); 0.000493 µg/mL and 0.629 nM with MDA-MB-231 (HER2−).

The values are drawn from patent publication US12653900B2, “Antibody drug conjugates comprising ecteinascidin derivatives” (PHARMA MAR, S.A., priority 2018, dated 2026).
